According to article PMC2737586 (Chemistry & biology, 2009):

Assays:
Assay type in all cases: biochemical
ValD [1] = biological target: ValD (Streptomyces hygroscopicus, UniProt Q1L2K7, H44N); assay: TLC and 1H NMR of epimerization, relative activity; conditions: TLC after 30 min
ValD [2] = biological target: ValD (Streptomyces hygroscopicus, UniProt Q1L2K7, E366A); assay: TLC and 1H NMR of epimerization, relative activity; conditions: TLC after 30 min
ValD [3] = biological target: ValD (Streptomyces hygroscopicus, UniProt Q1L2K7, H130N); assay: TLC of epimerization, relative activity; conditions: TLC after 30 min
N-terminal half of ValD = N-terminal half of ValD (Streptomyces hygroscopicus, UniProt Q1L2K7); assay: in vitro epimerase assay
ValD [4] = biological target: ValD (Streptomyces hygroscopicus, UniProt Q1L2K7, E107A); assay: TLC of epimerization, relative activity; conditions: TLC after 30 min
ValD [5] = biological target: ValD (Streptomyces hygroscopicus, UniProt Q1L2K7, H315N); assay: TLC of epimerization, relative activity; conditions: TLC after 30 min
ValD [6] = biological target: ValD (Streptomyces hygroscopicus, UniProt Q1L2K7, E183A); assay: TLC and 1H NMR of epimerization, relative activity; conditions: TLC after 30 min
C-terminal half of ValD = C-terminal half of ValD (Streptomyces hygroscopicus, UniProt Q1L2K7); assay: in vitro epimerase assay
ValD [7] = biological target: ValD (Streptomyces hygroscopicus, UniProt Q1L2K7, E291A); assay: TLC of epimerization, relative activity; conditions: TLC after 30 min
ValD [8] = biological target: ValD (Streptomyces hygroscopicus, UniProt Q1L2K7, H229N); assay: TLC and 1H NMR of epimerization, relative activity; conditions: TLC after 30 min

O=C1C[C@@](O)(CO)[C@@H](O)[C@H](O)[C@@H]1O [2-epi-5-epi-valiolone]
TLC and 1H NMR of epimerization, relative activity (ValD [1]): H44N, E107A, and E366A proteins had significantly reduced activities | TLC and 1H NMR of epimerization, relative activity (ValD [2]): H44N, E107A, and E366A proteins had significantly reduced activities | TLC of epimerization, relative activity (ValD [3]): H130N, E183A, H229N, and E291A proteins had a comparable epimerase activity | in vitro epimerase assay (data not shown) (N-terminal half of ValD): truncated proteins have a significantly reduced capacity to convert 2-epi-5-epi-valiolone to 5-epi-valiolone (data not shown) | TLC of epimerization, relative activity (ValD [4]): H44N, E107A, and E366A proteins had significantly reduced activities | TLC of epimerization, relative activity (ValD [5]): Mutation at H315 appeared to have moderate effect on the epimerase activity | TLC and 1H NMR of epimerization, relative activity (ValD [6]): H130N, E183A, H229N, and E291A proteins had a comparable epimerase activity | in vitro epimerase assay (data not shown) (C-terminal half of ValD): truncated proteins have a significantly reduced capacity to convert 2-epi-5-epi-valiolone to 5-epi-valiolone (data not shown) | TLC of epimerization, relative activity (ValD [7]): H130N, E183A, H229N, and E291A proteins had a comparable epimerase activity | TLC and 1H NMR of epimerization, relative activity (ValD [8]): H130N, E183A, H229N, and E291A proteins had a comparable epimerase activity
